Laboratory results as given in US20240383886A1, “Protein Tyrosine Phosphatase Degraders and Methods of Use Thereof” (CALICO LIFE SCIENCES LLC, priority 2019, published 2024).

How the values were obtained:
[1] = target: T1, PTPN2 (Homo sapiens, UniProt P17706); assay: HiBiT-Degradation 293T.109 PTPN2 (Nano-Glo HiBiT Lytic Assay); format: cell-based; conditions: 293T.109 (HiBiT-PTPN2) cells, 24.0 hours
T1 construct: expressed in transfected cells; host or cells: 293T (293T.109 HiBiT-PTPN2 line; parental 293T WT from ATCC)
T1 sequence (P17706 1-415): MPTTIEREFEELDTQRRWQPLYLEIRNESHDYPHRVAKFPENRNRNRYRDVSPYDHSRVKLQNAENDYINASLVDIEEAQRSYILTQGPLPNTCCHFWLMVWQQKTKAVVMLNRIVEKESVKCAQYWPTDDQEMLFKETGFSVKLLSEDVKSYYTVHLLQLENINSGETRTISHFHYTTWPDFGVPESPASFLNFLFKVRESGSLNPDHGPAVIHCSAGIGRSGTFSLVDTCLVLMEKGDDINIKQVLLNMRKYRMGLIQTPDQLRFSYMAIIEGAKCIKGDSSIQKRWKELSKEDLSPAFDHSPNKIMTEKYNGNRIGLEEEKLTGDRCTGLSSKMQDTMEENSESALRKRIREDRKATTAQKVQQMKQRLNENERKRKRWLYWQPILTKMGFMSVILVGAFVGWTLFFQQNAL
How it was run: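 293T cells ectopically expressing N-terminally HiBiT-tagged PTPN2 were seeded at 5000 cells/well. They were treated with an 11-point half-log titration from 10 μM, in duplicate, for 24 hours at 37° C., 5% CO2. Remaining tagged PTPN2 was quantified by lytic HiBiT luminescence against untreated and no-reagent controls.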

[2] = test system: PTPN2; assay: HiBiT-Degradation B16F10.4 PTPN2; format: cell-based; conditions: B16F10.4 cells, 24.0 hours

O=C1CCC(Nc2ccc(C3CCN(CC(=O)Nc4ccc5c(F)c(N6CC(=O)NS6(=O)=O)c(O)cc5c4)CC3(F)F)cc2)C(=O)N1 (stereo not drawn) [Example 113, 2-[4-[4-[(2,6-dioxo-3-piperidyl)amino]phenyl]-3,3-difluoro-1-piperidyl]-N-[5-fluoro-7-hydroxy-6-(1,1,4-trioxo-1,2,5-thiadiazolidin-2-yl)-2-naphthyl]acetamide]
DC50 [1]: 200 to 1000 nM
DC50 [2]: 200 to 1000 nM

Cn1nc(C2CCC(=O)NC2=O)c2ccc(C3CCN(CC(=O)Nc4ccc5c(F)c(N6CC(=O)NS6(=O)=O)c(O)cc5c4)CC3(F)F)cc21 (stereo not drawn) [Example 114, N-(6-(1,1-dioxido-4-oxo-1,2,5-thiadiazolidin-2-yl)-5-fluoro-7-hydroxynaphthalen-2-yl)-2-(4-(3-(2,6-dioxopiperidin-3-yl)-1-methyl-1H-indazol-6-yl)-3,3-difluoropiperidin-1-yl)acetamide]
DC50 [1]: 50 to 200 nM
DC50 [2]: 50 to 200 nM

Cn1c(=O)n(C2CCC(=O)NC2=O)c2ccc(C3CCN(CC(=O)N4CC(c5ccc6c(F)c(N7CC(=O)NS7(=O)=O)c(O)cc6c5)C4)CC3)cc21 (stereo not drawn) [Example 115, 3-(5-(1-(2-(3-(6-(1,1-dioxido-4-oxo-1,2,5-thiadiazolidin-2-yl)-5-fluoro-7-hydroxynaphthalen-2-yl)azetidin-1-yl)-2-oxoethyl)piperidin-4-yl)-3-methyl-2-oxo-2,3-dihydro-1H-benzo[d]imidazol-1-yl)piperidine-2,6-dione]
DC50 [1]: 200 to 1000 nM
DC50 [2]: 200 to 1000 nM

Cn1c(=O)n(C2CCC(=O)NC2=O)c2ccc(-c3ccc(CCC(=O)Nc4ccc5c(F)c(N6CC(=O)NS6(=O)=O)c(O)cc5c4)cc3)cc21 (stereo not drawn) [Example 116, N-(6-(1,1-dioxido-4-oxo-1,2,5-thiadiazolidin-2-yl)-5-fluoro-7-hydroxynaphthalen-2-yl)-3-(4-(1-(2,6-dioxopiperidin-3-yl)-3-methyl-2-oxo-2,3-dihydro-1H-benzo[d]imidazol-5-yl)phenyl)propanamide]
DC50 [1]: 50 to 200 nM
DC50 [2]: 50 to 200 nM

Cn1nc(C2CCC(=O)NC2=O)c2ccc(C3CCN(C4CC(C(=O)Nc5ccc6c(F)c(N7CC(=O)NS7(=O)=O)c(O)cc6c5)C4)CC3(F)F)cc21 (stereo not drawn) [Example 117, N-(6-(1,1-dioxido-4-oxo-1,2,5-thiadiazolidin-2-yl)-5-fluoro-7-hydroxynaphthalen-2-yl)-3-(4-(3-(2,6-dioxopiperidin-3-yl)-1-methyl-1H-indazol-6-yl)-3,3-difluoropiperidin-1-yl)cyclobutanecarboxamide]
DC50 [1]: 10 to 50 nM
DC50 [2]: 50 to 200 nM

Cn1c(=O)n(C2CCC(=O)NC2=O)c2ccc(-c3ccc(CC(=O)Nc4ccc5c(F)c(N6CC(=O)NS6(=O)=O)c(O)cc5c4)cc3F)cc21 (stereo not drawn) [Example 118, N-(6-(1,1-dioxido-4-oxo-1,2,5-thiadiazolidin-2-yl)-5-fluoro-7-hydroxynaphthalen-2-yl)-2-(4-(1-(2,6-dioxopiperidin-3-yl)-3-methyl-2-oxo-2,3-dihydro-1H-benzo[d]imidazol-5-yl)-3-fluorophenyl)acetamide]
DC50 [1]: 50 to 200 nM
DC50 [2]: 10 to 50 nM

Cn1c(=O)n(C2CCC(=O)NC2=O)c2ccc(C3CCN(CC(=O)N4CC=C(c5ccc6cc(O)c(N7CC(=O)NS7(=O)=O)c(F)c6c5)CC4)CC3)cc21 (stereo not drawn) [Example 119, 3-[5-[1-[2-[4-[8-fluoro-6-hydroxy-7-(1,1,4-trioxo-1,2,5-thiadiazolidin-2-yl)-2-naphthyl]-3,6-dihydro-2H-pyridin-1-yl]-2-oxo-ethyl]-4-piperidyl]-3-methyl-2-oxo-benzimidazol-1-yl]piperidine-2,6-dione]
DC50 [1]: 10 to 50 nM
DC50 [2]: 50 to 200 nM

Cn1c(=O)n(C2CCC(=O)NC2=O)c2ccc(C3CCN(CC(=O)N4CCC(c5ccc6cc(O)c(N7CC(=O)NS7(=O)=O)c(F)c6c5)CC4)CC3)cc21 (stereo not drawn) [Example 120, 3-[5-[1-[2-[4-[8-fluoro-6-hydroxy-7-(1,1,4-trioxo-1,2,5-thiadiazolidin-2-yl)-2-naphthyl]-1-piperidyl]-2-oxo-ethyl]-4-piperidyl]-3-methyl-2-oxo-benzimidazol-1-yl]piperidine-2,6-dione]
DC50 [1]: 10 to 50 nM
DC50 [2]: 50 to 200 nM

Cn1c(=O)n(C2CCC(=O)NC2=O)c2ccc(C3CCN(CCN4CC=C(c5ccc6cc(O)c(N7CC(=O)NS7(=O)=O)c(F)c6c5)CC4)CC3)cc21 (stereo not drawn) [Example 121, 3-[5-[1-[2-[4-[8-fluoro-6-hydroxy-7-(1,1,4-trioxo-1,2,5-thiadiazolidin-2-yl)-2-naphthyl]-3,6-dihydro-2H-pyridin-1-yl]ethyl]-4-piperidyl]-3-methyl-2-oxo-benzimidazol-1-yl]piperidine-2,6-dione]
DC50 [1]: 10 to 50 nM
DC50 [2]: 50 to 200 nM

Cn1c(=O)n(C2CCC(=O)NC2=O)c2ccc(C3CCN(CCn4cc(-c5ccc6c(F)c(N7CC(=O)NS7(=O)=O)c(O)cc6c5)cn4)CC3)cc21 (stereo not drawn) [Example 122, 3-[5-[1-[2-[4-[5-fluoro-7-hydroxy-6-(1,1,4-trioxo-1,2,5-thiadiazolidin-2-yl)-2-naphthyl]pyrazol-1-yl]ethyl]-4-piperidyl]-3-methyl-2-oxo-benzimidazol-1-yl]piperidine-2,6-dione]
DC50 [1]: 10 to 50 nM
DC50 [2]: 200 to 1000 nM

Cn1c(=O)n(C2CCC(=O)NC2=O)c2ccc(C3CCN(CCN4CCC(c5ccc6cc(O)c(N7CC(=O)NS7(=O)=O)c(F)c6c5)CC4)CC3)cc21 (stereo not drawn) [Example 123, 3-[5-[1-[2-[4-[8-fluoro-6-hydroxy-7-(1,1,4-trioxo-1,2,5-thiadiazolidin-2-yl)-2-naphthyl]-1-piperidyl]ethyl]-4-piperidyl]-3-methyl-2-oxo-benzimidazol-1-yl]piperidine-2,6-dione]
DC50 [1]: 10 to 50 nM
DC50 [2]: 50 to 200 nM

Cn1c(=O)n(C2CCC(=O)NC2=O)c2ccc(N3CCC(CC(=O)N4CCC(c5ccc6cc(O)c(N7CC(=O)NS7(=O)=O)c(F)c6c5)CC4)CC3)cc21 (stereo not drawn) [Example 124, 3-[5-[4-[2-[4-[8-fluoro-6-hydroxy-7-(1,1,4-trioxo-1,2,5-thiadiazolidin-2-yl)-2-naphthyl]-1-piperidyl]-2-oxo-ethyl]-1-piperidyl]-3-methyl-2-oxo-benzimidazol-1-yl]piperidine-2,6-dione]
DC50 [1]: 200 to 1000 nM
DC50 [2]: 200 to 1000 nM

Cn1c(=O)n(C2CCC(=O)NC2=O)c2ccc(C3CCN(Cc4cnn(-c5ccc6cc(O)c(N7CC(=O)NS7(=O)=O)c(F)c6c5)c4)CC3)cc21 (stereo not drawn) [Example 125, 3-[5-[1-[[1-[8-fluoro-6-hydroxy-7-(1,1,4-trioxo-1,2,5-thiadiazolidin-2-yl)-2-naphthyl]pyrazol-4-yl]methyl]-4-piperidyl]-3-methyl-2-oxo-benzimidazol-1-yl]piperidine-2,6-dione]
DC50 [1]: 50 to 200 nM
DC50 [2]: 200 to 1000 nM

Cn1c(=O)n(C2CCC(=O)NC2=O)c2ccc(Nc3ccc(C(=O)NCCOc4ccc5cc(O)c(N6CC(=O)NS6(=O)=O)c(F)c5c4)cc3)cc21 (stereo not drawn) [Example 126, 4-[[1-(2,6-dioxo-3-piperidyl)-3-methyl-2-oxo-benzimidazol-5-yl]amino]-N-[2-[[8-fluoro-6-hydroxy-7-(1,1,4-trioxo-1,2,5-thiadiazolidin-2-yl)-2-naphthyl]oxy]ethyl]benzamide]
DC50 [1]: 200 to 1000 nM
DC50 [2]: 200 to 1000 nM

Cn1c(=O)n(C2CCC(=O)NC2=O)c2ccc(N3CCC(CC(=O)N4CC=C(c5ccc6cc(O)c(N7CC(=O)NS7(=O)=O)c(F)c6c5)CC4)CC3)cc21 (stereo not drawn) [Example 127, 3-[5-[4-[2-[4-[8-fluoro-6-hydroxy-7-(1,1,4-trioxo-1,2,5-thiadiazolidin-2-yl)-2-naphthyl]-3,6-dihydro-2H-pyridin-1-yl]-2-oxo-ethyl]-1-piperidyl]-3-methyl-2-oxo-benzimidazol-1-yl]piperidine-2,6-dione]
DC50 [1]: 50 to 200 nM
DC50 [2]: 200 to 1000 nM

Cn1c(=O)n(C2CCC(=O)NC2=O)c2ccc(C3CCN(CCCCOc4ccc5cc(O)c(N6CC(=O)NS6(=O)=O)c(F)c5c4)CC3)cc21 (stereo not drawn) [Example 128, 3-[5-[1-[4-[[8-fluoro-6-hydroxy-7-(1,1,4-trioxo-1,2,5-thiadiazolidin-2-yl)-2-naphthyl]oxy]butyl]-4-piperidyl]-3-methyl-2-oxo-benzimidazol-1-yl]piperidine-2,6-dione]
DC50 [1]: 50 to 200 nM
DC50 [2]: 200 to 1000 nM

Cn1c(=O)n(C2CCC(=O)NC2=O)c2ccc(C3CCN(CC(=O)Nc4ccc5c(F)c(N6CC(=O)NS6(=O)=O)c(O)cc5c4)CC3(F)F)cc21 (stereo not drawn) [Example 129, 2-[4-[1-(2,6-dioxo-3-piperidyl)-3-methyl-2-oxo-benzimidazol-5-yl]-3,3-difluoro-1-piperidyl]-N-[5-fluoro-7-hydroxy-6-(1,1,4-trioxo-1,2,5-thiadiazolidin-2-yl)-2-naphthyl]acetamide]
DC50 [1]: 50 to 200 nM
DC50 [2]: 50 to 200 nM

Cn1c(=O)n(C2CCC(=O)NC2=O)c2ccc(C3CCN(CC(=O)N4CCC[C@@H](COc5ccc6cc(O)c(N7CC(=O)NS7(=O)=O)c(F)c6c5)C4)CC3)cc21 (stereo partly drawn) [Example 130, 3-[5-[1-[2-[(3R)-3-[[8-fluoro-6-hydroxy-7-(1,1,4-trioxo-1,2,5-thiadiazolidin-2-yl)-2-naphthyl]oxymethyl]-1-piperidyl]-2-oxo-ethyl]-4-piperidyl]-3-methyl-2-oxo-benzimidazol-1-yl]piperidine-2,6-dione]
DC50 [1]: 50 to 200 nM
DC50 [2]: 50 to 200 nM
